Measurements reported in ChEMBL document CHEMBL1146901, “Synthesis and pharmacological study of novel pyrido-quinazolone analogues as anti-fungal, antibacterial, and anticancer agents” (Bioorg Med Chem Lett, 2006).

Legend:
[1] = system: MCF7; test: Cytotoxicity against human MCF7 cells; assay type: functional, cell-based
[2] = system: Staphylococcus aureus; test: Antibacterial activity against Staphylococcus aureus by disk diffusion method; assay type: functional
[3] = system: MCF7; test: Cytotoxicity against human MCF7 cells assessed as decrease in number of cells relative to control; assay type: functional, cell-based
[4] = system: Pseudomonas aeruginosa; test: Antibacterial activity against Pseudomonas aeruginosa by disk diffusion method; assay type: functional
[5] = system: Aspergillus flavus; test: Antifungal activity against Aspergillus flavus at 100 ug/ml by agar plate method; assay type: functional
[6] = system: Klebsiella pneumoniae; test: Antibacterial activity against Klebsiella pneumoniae by disk diffusion method; assay type: functional
[7] = system: Aspergillus flavus; test: Antifungal activity against Aspergillus flavus at 50 ug/ml by agar plate method; assay type: functional
[8] = system: Aspergillus flavus; test: Antifungal activity against Aspergillus flavus at 20 ug/ml by agar plate method; assay type: functional
[9] = system: Aspergillus niger; test: Antifungal activity against Aspergillus niger at 20 ug/ml by agar plate method; assay type: functional
[10] = system: Aspergillus flavus; test: Antifungal activity against Aspergillus flavus at 10 ug/ml by agar plate method; assay type: functional
[11] = system: Aspergillus niger; test: Antifungal activity against Aspergillus niger at 100 ug/ml by agar plate method; assay type: functional
[12] = system: Aspergillus niger; test: Antifungal activity against Aspergillus niger at 50 ug/ml by agar plate method; assay type: functional
[13] = system: Aspergillus niger; test: Antifungal activity against Aspergillus niger at 10 ug/ml by agar plate method; assay type: functional

Row | SMILES | IC50 [1] [µM] | inhibition zone (IZ) [2] [mm] | Activity [3] | inhibition zone (IZ) [4] [mm] | inhibition at 100 µg/mL [5] [%] | inhibition zone (IZ) [6] [mm] | inhibition at 50 µg/mL [7] [%] | inhibition at 20 µg/mL [8] [%] | inhibition at 20 µg/mL [9] [%] | inhibition at 10 µg/mL [10] [%] | inhibition at 100 µg/mL [11] [%] | inhibition at 50 µg/mL [12] [%] | inhibition at 10 µg/mL [13] [%]
1 | COc1ccc(-n2c(-c3ccccc3)c(-c3ccccc3)c3cc4c(cc3c2=O)C(c2ccccc2)NC(=O)N4)cc1 (centres undefined) | 11.4 | 6 | Not toxic | 6 | ≤ 25 | 6 | ≤ 25 | ≤ 25 | ≤ 25 | ≤ 25 | ≤ 25 | ≤ 25 | ≤ 25
2 | O=C1NCc2cc3c(=O)n(-c4ccc(Cl)cc4)c(-c4ccccc4)c(-c4ccccc4)c3cc2N1 | 3.7 | 6 | Not toxic | 6 | ≤ 25 | 6 | ≤ 25 | ≤ 25 | ≤ 25 | ≤ 25 | ≤ 25 | ≤ 25 | ≤ 25
3 | O=C1Nc2cc3c(-c4ccccc4)c(-c4ccccc4)n(-c4ccc(Cl)cc4)c(=O)c3cc2C(c2ccccc2)N1 (centres undefined) | 25.6 | 10 | Toxic | 10 | 93.3 | 10 | 83.3 | 76.7 | 70 | 60 | 90 | 80 | 50
4 | O=C1NCc2cc3c(=O)n(-c4ccccc4)c(-c4ccccc4)c(-c4ccccc4)c3cc2N1 | 8.5 | 6 | – | 6 | ≤ 25 | 6 | ≤ 25 | ≤ 25 | ≤ 25 | ≤ 25 | ≤ 25 | ≤ 25 | ≤ 25
5 | O=C1Nc2cc3c(-c4ccccc4)c(-c4ccccc4)n(-c4ccccc4)c(=O)c3cc2C(c2ccccc2)N1 (centres undefined) | 4.4 | >14 | Toxic | 10 | 86.7 | 6 | 73.3 | 60 | 75 | 53.3 | 95 | 90 | 60
